Assay results published in publication PMC6002439, “Inhibitory influence of natural flavonoids on human protein kinase CK2 isoforms: effect of the regulatory subunit” (Molecular and Cellular Biochemistry, 2017).

Molecular target: T1, CK2α2β2 (Homo sapiens, UniProt P68400)
T1 construct: GST (N); made in house; host or cells: E. coli BL21(DE3)trxB
Assay: CK2 activity, phosphorylation of yeast P2B protein substrate, CK2α2β2 holoenzyme
Format: biochemical
Settings: 10 μM yeast P2B as substrate, 20 µM ATP
Protocol: (§1) CK2α2β2 and CK2α′2β2 holoenzymes were purified as described elsewhere. Briefly, both catalytic subunits were overexpressed as GST fusion proteins, whereas the regulatory subunit was expressed as His-tagged protein. E. coli BL21(DE3)trxB cells (Novagen) harboring the plasmid pGEX-3X::CSNK2A1, pGEX-3X::CSNK2A2 or pET28a::CSNK2B were grown until OD600 = 0.6 at 37 °C. Next, IPTG was added to the final concentration of 0.2 mM; cultures were continued at room temperature for 4 h and then centrifuged at 5000×g for 10 min. Obtained bacterial pellets were mixed prior to lysis. Cells were disrupted by sonication and the supernatant was purified using glutathione-Sepharose (Pharmacia Biotech). Fractions containing the CK2 holoenzyme were pooled and dialysed against 50 mM Tris/HCl buffer pH 7.5 supplemented with 6 mM β-mercaptoethanol and 30% glycerol. The obtained protein preparations were used in enzymatic assays.
(§2) CK2 activity was determined in a standard reaction mixture (40 μL of final volume) containing 20 mM Tris–HCl buffer, pH 7.5, 15 mM MgCl2, 6 mM β-mercaptoethanol, and 20 μM [γ-^32P]ATP (specific radioactivity 500–1000 cpm/pmol) in the presence of 10 μM yeast P2B as substrate. Incubation was performed at 37 °C for 15 min. Afterwards, the reaction was terminated by adding 7 μL of SDS-PAGE loading buffer. Reaction mixtures were resolved in SDS-PAGE followed by Coomassie blue staining and autoradiography. The phosphate incorporation level in the P2B protein was estimated by cutting off the corresponding band and measuring the radioactivity in a scintillation counter (Perkin-Elmer).

T1 sequence (P68400 whole entry): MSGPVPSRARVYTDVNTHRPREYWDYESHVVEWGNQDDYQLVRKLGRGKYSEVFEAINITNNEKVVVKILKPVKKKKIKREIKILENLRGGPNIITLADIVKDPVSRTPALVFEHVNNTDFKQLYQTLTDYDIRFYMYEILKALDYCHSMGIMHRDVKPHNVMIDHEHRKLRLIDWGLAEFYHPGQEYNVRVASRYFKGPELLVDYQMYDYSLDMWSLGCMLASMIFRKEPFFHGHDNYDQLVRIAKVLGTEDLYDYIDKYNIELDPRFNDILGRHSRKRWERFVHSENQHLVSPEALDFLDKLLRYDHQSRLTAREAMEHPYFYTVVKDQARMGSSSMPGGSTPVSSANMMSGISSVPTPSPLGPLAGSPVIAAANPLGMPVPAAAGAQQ
T1 sequence (P67870 whole entry partner): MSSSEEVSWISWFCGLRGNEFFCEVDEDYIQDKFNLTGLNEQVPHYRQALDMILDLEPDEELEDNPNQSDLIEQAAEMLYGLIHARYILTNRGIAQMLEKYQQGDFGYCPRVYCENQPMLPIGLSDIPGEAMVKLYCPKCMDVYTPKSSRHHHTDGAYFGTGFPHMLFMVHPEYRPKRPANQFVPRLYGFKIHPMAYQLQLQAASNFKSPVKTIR

Point of comparison: `COc1cc2oc(-c3ccc(O)c(O)c3)cc(=O)c2c(O)c1O` [Compound 2, pedalitin], IC50 0.2 ± 0.03 µM. Against it:
- COc1cc(-c2cc(=O)c3c(O)cc(O)cc3o2)cc(OC)c1O [Compound 3, tricin] — 7.8-fold higher, 1.55 ± 0.1 µM
- O=C(O)C1OC(Oc2cc(O)c3c(=O)cc(-c4ccc(O)cc4)oc3c2)C(O)C(O)C1O (stereo not shown) [Compound 4b, Apigenin 7-O-glucuronide] — 62-fold higher, 12.4 ± 0.6 µM
- O=C1/C(=C/c2ccc(O)c(O)c2)Oc2cc(O)cc(O[C@@H]3O[C@H](CO)[C@@H](O)[C@H](O)[C@H]3O)c21 [Compound 10, cernuoside] — 18-fold higher, 3.7 ± 0.3 µM
- COC(=O)C1OC(Oc2cc(O)c3c(=O)c(OC)c(-c4ccc(O)cc4)oc3c2)C(O)C(O)C1O (stereo not shown) [Compound 6c, isokaempferide 7-O-methylglucuronide] — higher, > 40 µM

For `COC(=O)C1OC(Oc2cc(O)c3c(=O)c(OC)c(-c4ccc(O)cc4)oc3c2)C(O)C(O)C1O` (stereo not shown) [Compound 6c, isokaempferide 7-O-methylglucuronide], the “IC50 CK2α2β2, P2B” value was “without any inhibition”.

Molecular target: T2, CK2α′2β2 (Homo sapiens, UniProt P19784)
T2 construct: GST (N); made in house; host or cells: E. coli BL21(DE3)trxB
Assay: CK2 activity, phosphorylation of yeast P2B protein substrate, CK2α′2β2 holoenzyme
Format: biochemical
Settings: 10 μM yeast P2B as substrate, 20 µM ATP
Protocol: as §1, §2

T2 sequence (P19784 whole entry): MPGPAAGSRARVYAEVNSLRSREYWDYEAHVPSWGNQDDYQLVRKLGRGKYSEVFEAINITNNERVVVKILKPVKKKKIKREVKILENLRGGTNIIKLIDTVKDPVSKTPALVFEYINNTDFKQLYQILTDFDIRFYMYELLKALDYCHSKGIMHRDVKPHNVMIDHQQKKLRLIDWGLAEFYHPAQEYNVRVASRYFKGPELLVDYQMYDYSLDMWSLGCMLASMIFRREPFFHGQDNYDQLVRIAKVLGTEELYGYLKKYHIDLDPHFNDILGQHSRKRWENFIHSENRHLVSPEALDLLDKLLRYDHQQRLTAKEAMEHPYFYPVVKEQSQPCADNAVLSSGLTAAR
T2 sequence (P67870 whole entry partner): as the sequence (P67870 whole entry partner) above

Point of comparison: `O=C1/C(=C/c2ccc(O)c(O)c2)Oc2cc(O)cc(O[C@@H]3O[C@H](CO)[C@@H](O)[C@H](O)[C@H]3O)c21` [Compound 10, cernuoside], IC50 7.8 ± 0.7 µM. Against it:
- COc1cc(-c2cc(=O)c3c(O)cc(O)cc3o2)cc(OC)c1O [Compound 3, tricin] — 6.5-fold lower, 1.2 ± 0.1 µM
- O=C(O)C1OC(Oc2cc(O)c3c(=O)cc(-c4ccc(O)cc4)oc3c2)C(O)C(O)C1O (stereo not shown) [Compound 4b, Apigenin 7-O-glucuronide] — 2.1-fold higher, 16.5 ± 1.2 µM
- COC(=O)C1OC(Oc2cc(O)c3c(=O)c(OC)c(-c4ccc(O)cc4)oc3c2)C(O)C(O)C1O (stereo not shown) [Compound 6c, isokaempferide 7-O-methylglucuronide] — higher, > 40 µM
- COc1cc2oc(-c3ccc(O)c(O)c3)cc(=O)c2c(O)c1O [Compound 2, pedalitin] — 22-fold lower, 0.35 ± 0.03 µM

With `COC(=O)C1OC(Oc2cc(O)c3c(=O)c(OC)c(-c4ccc(O)cc4)oc3c2)C(O)C(O)C1O` (stereo not shown) [Compound 6c, isokaempferide 7-O-methylglucuronide] the “IC50 CK2α′2β2, P2B” value was “without any inhibition”.

Tested on: CK2α′
Assay: CK2 activity, phosphorylation of synthetic peptide […], free CK2α′
Format: biochemical, human
Settings: synthetic peptide as substrate; CK2α′ vs CK2α′2β2
Protocol: as §2
(§3) Phosphorylation of the peptide substrate (50 μM) was terminated by the addition of 10% orthophosphoric acid, and aliquots were spotted onto phosphocellulose filters (Whatmann P81). Filters were washed with 1% orthophosphoric acid three times and dried before counting in scintillation counter.

For `O=C1/C(=C/c2ccc(O)c(O)c2)Oc2cc(O)cc(O[C@@H]3O[C@H](CO)[C@@H](O)[C@H](O)[C@H]3O)c21` [Compound 10, cernuoside], the “stronger influence on CK2α′ than on the derived holoenzyme” value was 2.5 fold.

Molecular target: T1, CK2α2β2
Assay: CK2 activity, phosphorylation of synthetic peptide […], CK2α2β2 holoenzyme
Format: biochemical
Settings: 50 μM synthetic peptide as substrate, 20 µM ATP
Protocol: as §1, §2, §3

Point of comparison: `O=C(O)C1OC(Oc2cc(O)c3c(=O)cc(-c4ccc(O)cc4)oc3c2)C(O)C(O)C1O` (stereo not shown) [Compound 4b, Apigenin 7-O-glucuronide], IC50 9.4 ± 0.6 µM. Against it:
- COc1cc(-c2cc(=O)c3c(O)cc(O)cc3o2)cc(OC)c1O [Compound 3, tricin] — within 1.5-fold, 7.2 ± 0.5 µM
- O=C1/C(=C/c2ccc(O)c(O)c2)Oc2cc(O)cc(O[C@@H]3O[C@H](CO)[C@@H](O)[C@H](O)[C@H]3O)c21 [Compound 10, cernuoside] — 1.8-fold lower, 5.1 ± 0.3 µM
- COC(=O)C1OC(Oc2cc(O)c3c(=O)c(OC)c(-c4ccc(O)cc4)oc3c2)C(O)C(O)C1O (stereo not shown) [Compound 6c, isokaempferide 7-O-methylglucuronide] — higher, > 40 µM
- COc1cc2oc(-c3ccc(O)c(O)c3)cc(=O)c2c(O)c1O [Compound 2, pedalitin] — 47-fold lower, 0.2 ± 0.01 µM

Molecular target: T2, CK2α′2β2
Assay: CK2 activity, phosphorylation of synthetic peptide […], CK2α′2β2 holoenzyme
Format: biochemical
Settings: 50 μM synthetic peptide as substrate, 20 µM ATP
Protocol: as §1, §2, §3

Point of comparison: `O=C1/C(=C/c2ccc(O)c(O)c2)Oc2cc(O)cc(O[C@@H]3O[C@H](CO)[C@@H](O)[C@H](O)[C@H]3O)c21` [Compound 10, cernuoside], IC50 9.6 ± 0.8 µM. Against it:
- COc1cc(-c2cc(=O)c3c(O)cc(O)cc3o2)cc(OC)c1O [Compound 3, tricin] — 2.5-fold lower, 3.8 ± 0.4 µM
- O=C(O)C1OC(Oc2cc(O)c3c(=O)cc(-c4ccc(O)cc4)oc3c2)C(O)C(O)C1O (stereo not shown) [Compound 4b, Apigenin 7-O-glucuronide] — 2.4-fold higher, 22.8 ± 1.4 µM
- COC(=O)C1OC(Oc2cc(O)c3c(=O)c(OC)c(-c4ccc(O)cc4)oc3c2)C(O)C(O)C1O (stereo not shown) [Compound 6c, isokaempferide 7-O-methylglucuronide] — higher, > 40 µM
- COc1cc2oc(-c3ccc(O)c(O)c3)cc(=O)c2c(O)c1O [Compound 2, pedalitin] — 38-fold lower, 0.25 ± 0.05 µM

Tested on: CK2α
Assay: not given
Set-up: method as in PMID 28043654
Settings: 10 μM yeast P2B as substrate, 20 µM ATP; ref [23]; cited from earlier work

Point of comparison: `O=C(O)C1OC(Oc2cc(O)c3c(=O)cc(-c4ccc(O)cc4)oc3c2)C(O)C(O)C1O` (stereo not shown) [Compound 4b, Apigenin 7-O-glucuronide], IC50 16.6 ± 1.4 µM. Against it:
- COc1cc(-c2cc(=O)c3c(O)cc(O)cc3o2)cc(OC)c1O [Compound 3, tricin] — within 1.5-fold, 21 ± 1.8 µM
- O=C1/C(=C/c2ccc(O)c(O)c2)Oc2cc(O)cc(O[C@@H]3O[C@H](CO)[C@@H](O)[C@H](O)[C@H]3O)c21 [Compound 10, cernuoside] — 2.9-fold lower, 5.8 ± 0.4 µM
- COC(=O)C1OC(Oc2cc(O)c3c(=O)c(OC)c(-c4ccc(O)cc4)oc3c2)C(O)C(O)C1O (stereo not shown) [Compound 6c, isokaempferide 7-O-methylglucuronide] — higher, > 40 µM
- COc1cc2oc(-c3ccc(O)c(O)c3)cc(=O)c2c(O)c1O [Compound 2, pedalitin] — 2.4-fold lower, 7 ± 0.5 µM

Tested on: CK2α′
Assay: not given
Set-up: method as in PMID 28043654
Settings: 10 μM yeast P2B as substrate, 20 µM ATP; ref [23]; cited from earlier work

Point of comparison: `COc1cc(-c2cc(=O)c3c(O)cc(O)cc3o2)cc(OC)c1O` [Compound 3, tricin], IC50 3.3 ± 0.5 µM. Against it:
- O=C(O)C1OC(Oc2cc(O)c3c(=O)cc(-c4ccc(O)cc4)oc3c2)C(O)C(O)C1O (stereo not shown) [Compound 4b, Apigenin 7-O-glucuronide] — 8.2-fold lower, 0.4 ± 0.06 µM
- O=C1/C(=C/c2ccc(O)c(O)c2)Oc2cc(O)cc(O[C@@H]3O[C@H](CO)[C@@H](O)[C@H](O)[C@H]3O)c21 [Compound 10, cernuoside] — 1.5-fold higher, 5.1 ± 0.3 µM
- COC(=O)C1OC(Oc2cc(O)c3c(=O)c(OC)c(-c4ccc(O)cc4)oc3c2)C(O)C(O)C1O (stereo not shown) [Compound 6c, isokaempferide 7-O-methylglucuronide] — higher, > 40 µM
- COc1cc2oc(-c3ccc(O)c(O)c3)cc(=O)c2c(O)c1O [Compound 2, pedalitin] — 8.2-fold lower, 0.4 ± 0.05 µM

Tested on: CK2α
Assay: not given
Set-up: method as in PMID 28043654
Settings: 50 μM synthetic peptide as substrate, 20 µM ATP; ref [23]; cited from earlier work

Point of comparison: `O=C1/C(=C/c2ccc(O)c(O)c2)Oc2cc(O)cc(O[C@@H]3O[C@H](CO)[C@@H](O)[C@H](O)[C@H]3O)c21` [Compound 10, cernuoside], IC50 5.3 ± 0.5 µM. Against it:
- COc1cc(-c2cc(=O)c3c(O)cc(O)cc3o2)cc(OC)c1O [Compound 3, tricin] — 2.1-fold higher, 11.2 ± 0.9 µM
- O=C(O)C1OC(Oc2cc(O)c3c(=O)cc(-c4ccc(O)cc4)oc3c2)C(O)C(O)C1O (stereo not shown) [Compound 4b, Apigenin 7-O-glucuronide] — within 1.5-fold, 3.6 ± 0.2 µM
- COC(=O)C1OC(Oc2cc(O)c3c(=O)c(OC)c(-c4ccc(O)cc4)oc3c2)C(O)C(O)C1O (stereo not shown) [Compound 6c, isokaempferide 7-O-methylglucuronide] — 3.2-fold higher, 17 ± 1.8 µM
- COc1cc2oc(-c3ccc(O)c(O)c3)cc(=O)c2c(O)c1O [Compound 2, pedalitin] — 13-fold lower, 0.4 ± 0.02 µM

Tested on: CK2α′
Assay: not given
Set-up: method as in PMID 28043654
Settings: 50 μM synthetic peptide as substrate, 20 µM ATP; ref [23]; cited from earlier work

Point of comparison: `COc1cc2oc(-c3ccc(O)c(O)c3)cc(=O)c2c(O)c1O` [Compound 2, pedalitin], IC50 0.2 ± 0.03 µM. Against it:
- COc1cc(-c2cc(=O)c3c(O)cc(O)cc3o2)cc(OC)c1O [Compound 3, tricin] — 24-fold higher, 4.7 ± 0.4 µM
- O=C(O)C1OC(Oc2cc(O)c3c(=O)cc(-c4ccc(O)cc4)oc3c2)C(O)C(O)C1O (stereo not shown) [Compound 4b, Apigenin 7-O-glucuronide] — 27-fold higher, 5.4 ± 0.4 µM
- O=C1/C(=C/c2ccc(O)c(O)c2)Oc2cc(O)cc(O[C@@H]3O[C@H](CO)[C@@H](O)[C@H](O)[C@H]3O)c21 [Compound 10, cernuoside] — 20-fold higher, 4 ± 0.3 µM
- COC(=O)C1OC(Oc2cc(O)c3c(=O)c(OC)c(-c4ccc(O)cc4)oc3c2)C(O)C(O)C1O (stereo not shown) [Compound 6c, isokaempferide 7-O-methylglucuronide] — higher, > 40 µM
